Experimental data reported in publication PMC7926471 (Viruses, 2021).
“Also recorded” adds a separate entry of the source. Like-named read-outs stand apart in the source and are kept apart here.

Columns and labels:
[1] = in vitro; details: human
[2] = tested on: MRC5 cells; assay: Cytotoxicity in MRC5 cells, MTT assay; details: drugs tested against HCoV-229E
[3] = tested on: MERS-CoV; details: in vitro; cited from earlier work
[4] = tested on: HCoV-229E; assay: Viral replication inhibition assay: HCoV-229E in MRC5 cells, PFU assay; format: cell-based, Human Coronavirus 229E
[5] = Cytotoxicity in MRC5 cells, MTT assay; details: human
[6] = tested on: HCoV-229E; parameters: method as in earlier work; details: Huh7 cells; cited from earlier work
[7] = tested on: Vero E6 cells; assay: Cytotoxicity in Vero E6 cells (WST-1 assay among others); format: cell-based
[8] = tested on: SARS-CoV-2; details: cited from earlier work
[9] = in vivo; cited from earlier work
[10] = tested on: lung cancer; details: nasal administration; cited from earlier work
[11] = tested on: SARS-CoV-2; assay: SARS-CoV-2 replication in Vero E6 cells, qRT-PCR of envelop (E) gene
[12] = tested on: SARS-CoV-2; details: especially in primary human bronchial epithelium cells; cited from earlier work
[13] = Cytotoxicity in Vero E6 cells (WST-1 assay among others); format: cell-based; details: African green monkey; Vero E6 cells, 48 h
[14] = single 500 mg oral dose; cited from earlier work
[15] = tested on: SARS-CoV-2; details: SARS-CoV-2 infection; cited from earlier work
[16] = tested on: HCoV-229E, SARS-CoV and MERS-CoV; details: cited from earlier work
[17] = Human coronavirus 229E, MRC5, 48 h, HCoV-229E in MRC5 cells, high titer MOI = 1, PFU assay after 48 h, read-out: EC50
[18] = SARS-CoV-2 in Vero E6 cells, qRT-PCR after 48 h

In the case of `CO[C@H]1C[C@@H]2CC[C@@H](C)[C@@](O)(O2)C(=O)C(=O)N2CCCC[C@H]2C(=O)O[C@H]([C@H](C)C[C@@H]2CC[C@@H](O)[C@H](OC)C2)CC(=O)[C@H](C)/C=C(\C)[C@@H](O)[C@@H](OC)C(=O)[C@H](C)C[C@H](C)/C=C/C=C/C=C/1C` [Rapamycin, rapamycin], the CC50 at 48 h [1] is listed as 2.5 µM, the “cytotoxicity (in words)” value [2] is listed as “highly cytotoxic” and the “reduction of MERS-CoV infection” value [3] is listed as “over 60%”. For the same compound, the EC50 ([4]; Human coronavirus 229E, MRC5, 48 h) was 0.00228 mM.
With `CN(C)C(=O)C(CCN1CCC(O)(c2ccc(Cl)cc2)CC1)(c1ccccc1)c1ccccc1` [Loperamide, loperamide] the CC50 at 48 h [5] was 10.1 µM and the “cytotoxicity (in words)” value [2] was “highly cytotoxic”.
For `CCN(CC)CCCC(C)Nc1ccnc2cc(Cl)ccc12` (stereo not shown) [Chloroquine, chloroquine diphosphate], the EC50 [6] is listed as 3.3 µM, the “cytotoxicity on Vero E6 cells (in words)” value ([7]; 48 h) is listed as “toxic; also recorded: high cytotoxicity” and the “reduction of the viral titer” value ([4]; HCoV-229E) is listed as 60%. For the same compound, the EC50 [4, 17] was 0.005 mM, the “HCoV-229E replication, low viral load (in words)” value ([4]; MOI = 0.01, Figure 2) was “inhibits HCoV-229E replication” and the “effect of combinatory treatment on HCoV-229E (in words)” value ([4]; combinations of lopinavir/ritonavir, chloroquine, resveratrol, MOI 0.01, Figure 2B) was “did not observe a synergistic effect”. For the same compound, the “effect when cells were treated before or after the infection (in words)” value ([4]; pre-treated 3 h or post-treated 4 h, MOI 1, Figure 3) was “did not observe a significant difference”.
With `CCCC(CCC)C(=O)O` [VPA, valproic acid] the CC50 at 48 h ([5]; MRC5 cells) was 4000 µM, the “cytotoxicity (in words)” value [2] was “highly cytotoxic” and the EC50 ([4]; Human coronavirus 229E, MRC5, 48 h, HCoV-229E in MRC5 cells, PFU assay after 48 h, value in mM) was 1.34 mM.
`Cc1cccc(C)c1OCC(=O)N[C@@H](Cc1ccccc1)[C@@H](O)C[C@H](Cc1ccccc1)NC(=O)[C@H](C(C)C)N1CCCNC1=O` [lopinavir] gave an EC50 ([4]; HCoV-229E in MRC5 cells, high titer MOI = 1, PFU assay after 48 h, read-out: EC50) of 0.0088 mM and an EC50 ([4]; Human coronavirus 229E, MRC5, 48 h, HCoV-229E in MRC5 cells, high titer MOI = 1, PFU assay after 48 h) of 0.00881 mM.
In the case of `Oc1ccc(/C=C/c2cc(O)cc(O)c2)cc1` [Resveratrol, resveratrol], the EC50 [8] is given as 4.48 µM, the “bioavailability (in words)” value [9] is given as “poor bioavailability” and the “reduction of tumor multiplicity” value [10] is given as 27%. The “reduction of tumor volume” value [10] was 45%, the “inhibition of SARS-CoV-2 replication” value ([11]; 25 µM, Vero E6 cells) was 3 logs and the EC50 [11, 18] was 10.7 µM. The EC90 [11, 18] was 11.4 µM, the “replication of SARS-CoV-2 (in words)” value [12] was “inhibited the replication” and the CC50 at 48 h [13] was 48.2 µM. For the same compound, the non-cytotoxic doses ([7]; in vitro, Vero E6) was “up to 25 µM”, the “reduction of the viral titer” value ([4]; HCoV-229E) was 80% and the Tmax [14] was 1.3 h.
In the case of `COc1cc(/C=C/c2ccc(O)cc2)cc(OC)c1` [pterostilbene], the “replication of SARS-CoV-2 (in words)” value [12] is listed as “inhibited the replication”.
For `CCN(CCO)CCCC(C)Nc1ccnc2cc(Cl)ccc12` (stereo not shown) [hydroxychloroquine], the EC90 [15] is listed as 5.47 µM.
With `CCN(CC)C(=S)SSC(=S)N(CC)CC` [Disulfiram, disulfiram] the CC50 at 48 h ([5]; MRC5 cells) was 8.4 µM, the “cytotoxicity (in words)” value [2] was “highly cytotoxic” and the “SI (selectivity index, CC50/EC50)” value ([4]; HCoV-229E, MRC5 cells) was 60.56. It also gave an EC50 [4, 17] of 0.000139 mM.
In the case of `CC(C)c1nc(CN(C)C(=O)N[C@H](C(=O)N[C@@H](Cc2ccccc2)C[C@H](O)[C@H](Cc2ccccc2)NC(=O)OCc2cncs2)C(C)C)cs1` [ritonavir], the “anti-CoV activity (in words)” value [16] is listed as “no selective anti-CoV activity”.
